{
  "source": "paper PMC11357256",
  "about": "“Selectivity Screening and Structure–Cytotoxic Activity Observations of Selected Oleanolic Acid (OA)-Type Saponins from the Amaranthaceae Family on a Wiade Panel of Human Cancer Cell Lines” (Molecules, 2024)",
  "key": {"HepG2": {"tested_on": "HepG2", "experiment": "MTT cell viability assay, HepG2 hepatocellular carcinoma cells", "assay_type": "cell-based", "details": "Homo sapiens", "source_text": "(§1) Cell lines used in the study were grouped as follows: skin panel (melanomas: HTB140, derived from metastatic site: lymph node, ATCC Hs 294 T; malignant A375, ATCC CRL-1619; stage I primary WM793, RRID:CVCL 8787; skin keratinocytes HaCaT); prostate panel (prostate carcinomas: Du145, derived from metastatic site: brain, ATCC HTB-81; grade IV PC3, derived from metastatic site: bone, ATCC CRL-1435, LNCaP, derived from the metastatic site: lymph node, ATCC CRL-1740; prostate epithelial, PNT2, ECACC 95012613); gastrointestinal panel (colorectal adenocarcinomas: Caco2, ATCC HTB-37, HT29, ATCC HTB-38, DLD-1, ATCC CCL-221, HCT116, ATCC CCL-247, and colon epithelial cells CCD 841 CoN, ATCC CRL-1790; hepatocellular carcinoma HepG2, ATCC HB-8065); thyroid panel (follicular thyroid carcinoma FTC133, ECACC 9406090, undifferentiated thyroid carcinoma 8505C, ECACC 94090184, papillary thyroid carcinoma TPC-1, SCC147, normal thyroid follicular epithelial Nthy-ori 3–1, ECACC 90011609); and breast panel (ER-positive breast adenocarcinoma MCF7, ATCC HTB-22; ER-negative breast adenocarcinoma MDA-MB-231, ATCC HTB-26; breast epithelial MCF10A, ATCC CRL-10317). Cells were grown under standard conditions (37 °C, 5% CO2, relative humidity), and culture media (DMEM/F12 for PNT2, WM 793, HT29, PC3, FTC133, 8505 C, MDA-MB-231, TPC-1; DMEM Low Glucose for DU145; DMEM High Glucose for HTB140, A375, HaCaT; MEM with NEAA for Caco2 and MCF7; RPMI1640 with sodium pyruvate for LNCaP; DMEM/F12 with 20 ng/mL epidermal growth factor (EGF), 10 μg/mL insulin, 0.5 μg/mL hydrocortisone, 100 ng/mL cholera toxin) for MCF10A) supplemented with 10% fetal bovine serum (FBS) or 5% donor horse serum for MCF10A, and 1% antibiotics solution (10,000 U penicillin and 10 mg streptomycin/mL) […], as previously described. All cell lines, culture media, and supplements were from Sigma-Aldrich (Germany).\n(§2) The cells were seeded in 96-well plates (1.5 × 10^4 cells/well). After 24 h, fresh medium was added, containing the tested compounds (0.5–100 μg/mL) and incubated for 24 or 48 h. Cell viability was determined by MTT assay, according to the manufacturer’s instructions, as described previously. Each experiment was performed in triplicate. The absorbance was measured at 570 nm using a Biotek Synergy microplate reader (BioTek Instruments Inc., Winooski, VT, USA). Cell viability was expressed as a percent of control (untreated cells). Doxorubicin was used as a reference drug."}, "HTB-140": {"tested_on": "HTB-140", "experiment": "MTT cell viability assay, HTB-140 metastatic melanoma cells", "assay_type": "cell-based, human", "details": "for IC50: Homo sapiens", "source_text": "as §1, §2\n(§3) The selectivity index (SI) was calculated from the following formula:SI = IC50 of compound in a normal cell line/IC50 of compound in cancer cell line.IC50, half maximal inhibitory concentration, is a concentration required to kill 50% of the cells."}, "WM793": {"tested_on": "WM793", "experiment": "MTT cell viability assay, WM793 primary melanoma cells", "assay_type": "cell-based, human", "details": "for IC50: Homo sapiens", "source_text": "as §1, §2, §3"}},
  "data": [
    {"smiles": "CC1(C)CCC2(C(=O)O)CCC3(C)C(=CCC4C5(C)CCC(OC6OC(C(=O)O)C(O)C(O)C6O)C(C)(C)C5CCC43C)C2C1", "note": "[CE, oleanolic acid-3-O-β-D-glucuronopyranoside]", "values": [
      {"measurement": "IC50", "setting": "HepG2; HepG2, 24 h", "value": 16.5, "unit": "µg/mL"},
      {"measurement": "IC50", "setting": "HepG2; HepG2, 48 h", "value": 6.9, "unit": "µg/mL"},
      {"measurement": "IC50", "setting": "HTB-140; HTB-140, 24 h", "value": 2.8, "unit": "µg/mL"},
      {"measurement": "IC50", "setting": "HTB-140; HTB-140, 48 h", "value": 1.7, "unit": "µg/mL"},
      {"measurement": "Selectivity Index (SI)", "setting": "HTB-140; IC50 HaCaT / IC50 HTB-140, 24 h", "value": 1.8},
      {"measurement": "Selectivity Index (SI)", "setting": "HTB-140; IC50 HaCaT / IC50 HTB-140, 48 h", "value": 1.1},
      {"measurement": "IC50", "setting": "WM793; WM793, 24 h", "value": 2.4, "unit": "µg/mL"},
      {"measurement": "IC50", "setting": "WM793; WM793, 48 h", "value": 1.2, "unit": "µg/mL"},
      {"measurement": "Selectivity Index (SI)", "setting": "WM793; IC50 HaCaT / IC50 WM793, 24 h", "value": 2.1},
      {"measurement": "Selectivity Index (SI)", "setting": "WM793; IC50 HaCaT / IC50 WM793, 48 h", "value": 1.6}
    ]}
  ]
}
